Columns and labels:
[1] = tested on: E. faecium VanA (code 569); conditions: 0.02% albumine bovine serum, read after 24 h
Description: (§1) MICs were performed using the broth microdilution methodology following the NCCLS procedure (NCCLS Document M7-A4 Vol. 17 No. 2 January 1997) in presence of 0.02% albumine bovine serum with inocula of approximately 5×10^5 cfu/mL. The media employed included cation-adjusted Mueller-Hinton (MH) broth (Difco Laboratories, Detroit, Mich., USA) supplemented or not with 30% (v/v) bovine serum. Tests were read after 24 h incubation at 25-37° C.

[2] = tested on: Staphylococcus aureus VISA Met-R (code 3797); conditions: S. aureus VISA Met-R code 3797; 0.02% albumine bovine serum; read after 24 h
Description: as §1

[3] = tested on: C. albicans ATCC 90028 (code 145); conditions: 0.02% albumine bovine serum, read after 24 h
Description: as §1

[4] = tested on: Escherichia coli (code 47); conditions: 0.02% albumine bovine serum, read after 24 h
Description: as §1

[5] = tested on: S. haemolyticus Met-S (code 1730); conditions: 0.02% albumine bovine serum, read after 24 h
Description: as §1

[6] = tested on: S. epidermidis ATCC12228 (code 147); conditions: 0.02% albumine bovine serum, read after 24 h
Description: as §1

[7] = tested on: E. faecalisVanA (code 560); conditions: E. faecalis VanA code 560; 0.02% albumine bovine serum; read after 24 h
Description: as §1

[8] = tested on: S. haemolyticus Met-R (code 1729); conditions: 0.02% albumine bovine serum, read after 24 h
Description: as §1

[9] = tested on: Staphylococcus aureus VISA (code 3798); conditions: S. aureus VISA code 3798; 0.02% albumine bovine serum; read after 24 h
Description: as §1

[10] = tested on: E. faecalisVanS (code 559); conditions: E. faecalis VanS code 559; 0.02% albumine bovine serum; read after 24 h
Description: as §1

[11] = tested on: Enterococcus faecium VanS (code 568); conditions: E. faecium VanS code 568; 0.02% albumine bovine serum; read after 24 h
Description: as §1

SMILES | Minimal Inhibitory Concentrations [1] [µg/mL] | Minimal Inhibitory Concentrations [2] [µg/mL] | Minimal Inhibitory Concentrations [3] [µg/mL] | Minimal Inhibitory Concentrations [4] [µg/mL] | Minimal Inhibitory Concentrations [5] [µg/mL] | Minimal Inhibitory Concentrations [6] [µg/mL] | Minimal Inhibitory Concentrations [7] [µg/mL] | Minimal Inhibitory Concentrations [8] [µg/mL] | Minimal Inhibitory Concentrations [9] [µg/mL] | Minimal Inhibitory Concentrations [10] [µg/mL] | Minimal Inhibitory Concentrations [11] [µg/mL]
C=C1NC(=O)[C@H](C(C)C)NC(=O)[C@H](NC(=O)/C(=C/C)NC(=O)[C@@H](N)[C@@H](C)CC)CSC[C@@H](C(=O)N[C@H]2C(=O)N3CCC[C@H]3C(=O)NCC(=O)N[C@H](C(=O)N[C@H](C(=O)N[C@@H]3CSC[C@@H]4NC(=O)CNC(=O)[C@@H](CSC[C@@H]5NC(=O)[C@H](Cc6c[nH]cn6)NC(=O)[C@@H](CSC[C@@H](C(=O)NC6CCCCC6)NC5=O)NC4=O)NC(=O)CNC(=O)CNC(=O)CNC(=O)[C@H](CCC(=O)NC4CCCCC4)NC3=O)[C@@H](C)O)CS[C@H]2C)NC(=O)[C@H](Cc2c[nH]c3ccccc23)NC1=O [Compound 1] | 2 | 4 | 64 | >128 | 4 | 2 | 1 | 32 | 2 | 1 | 2
C=C1NC(=O)[C@H](C(C)C)NC(=O)[C@H](NC(=O)/C(=C/C)NC(=O)[C@@H](N)[C@@H](C)CC)CSC[C@@H](C(=O)N[C@H]2C(=O)N3CCC[C@H]3C(=O)NCC(=O)N[C@H](C(=O)N[C@H](C(=O)N[C@@H]3CSC[C@@H]4NC(=O)CNC(=O)[C@@H](CSC[C@@H]5NC(=O)[C@H](Cc6c[nH]cn6)NC(=O)[C@@H](CSC[C@@H](C(=O)N(C)C)NC5=O)NC4=O)NC(=O)CNC(=O)CNC(=O)CNC(=O)[C@H](CCC(=O)N(C)C)NC3=O)[C@@H](C)O)CS[C@H]2C)NC(=O)[C@H](Cc2c[nH]c3ccccc23)NC1=O [Compound 2] | 16 | 16 | 64 | >128 | 8 | 8 | 16 | 32 | 4 | 16 | 16
C=CCNC(=O)CC[C@@H]1NC(=O)[C@H](NC(=O)[C@@H](NC(=O)[C@@H]2CS[C@@H](C)[C@@H](NC(=O)[C@@H]3CSC[C@@H](NC(=O)/C(=C/C)NC(=O)[C@@H](N)[C@@H](C)CC)C(=O)N[C@@H](C(C)C)C(=O)NC(=C)C(=O)N[C@@H](Cc4c[nH]c5ccccc45)C(=O)N3)C(=O)N3CCC[C@H]3C(=O)NCC(=O)N2)[C@@H](C)O)CSC[C@@H]2NC(=O)CNC(=O)[C@@H](CSC[C@@H]3NC(=O)[C@H](Cc4c[nH]cn4)NC(=O)[C@@H](CSC[C@@H](C(=O)NCC=C)NC3=O)NC2=O)NC(=O)CNC(=O)CNC(=O)CNC1=O [Compound 5] | 8 | 8 | 32 | >128 | 4 | 4 | 8 | 32 | 2 | 8 | 8
C=C1NC(=O)[C@H](C(C)C)NC(=O)[C@H](NC(=O)/C(=C/C)NC(=O)[C@@H](N)[C@@H](C)CC)CSC[C@@H](C(=O)N[C@H]2C(=O)N3CCC[C@H]3C(=O)NCC(=O)N[C@H](C(=O)N[C@H](C(=O)N[C@@H]3CSC[C@@H]4NC(=O)CNC(=O)[C@@H](CSC[C@@H]5NC(=O)[C@H](Cc6c[nH]cn6)NC(=O)[C@@H](CSC[C@@H](C(=O)NCc6cccc(OC)c6)NC5=O)NC4=O)NC(=O)CNC(=O)CNC(=O)CNC(=O)[C@H](CCC(=O)NCc4cccc(OC)c4)NC3=O)[C@@H](C)O)CS[C@H]2C)NC(=O)[C@H](Cc2c[nH]c3ccccc23)NC1=O [Compound 6] | 1 | 2 | 32 | >128 | 2 | 2 | 2 | >128 | 1 | 2 | 2
C=C1NC(=O)[C@H](C(C)C)NC(=O)[C@H](NC(=O)/C(=C/C)NC(=O)[C@@H](N)[C@@H](C)CC)CSC[C@@H](C(=O)N[C@H]2C(=O)N3CCC[C@H]3C(=O)NCC(=O)N[C@H](C(=O)N[C@H](C(=O)N[C@@H]3CSC[C@@H]4NC(=O)CNC(=O)[C@@H](CSC[C@@H]5NC(=O)[C@H](Cc6c[nH]cn6)NC(=O)[C@@H](CSC[C@@H](C(=O)NCCN)NC5=O)NC4=O)NC(=O)CNC(=O)CNC(=O)CNC(=O)[C@H](CCC(=O)NCCN)NC3=O)[C@@H](C)O)CS[C@H]2C)NC(=O)[C@H](Cc2c[nH]c3ccccc23)NC1=O [Compound 7] | 1 | 1 | 64 | >128 | <0.125 | 1 | 2 | 0.25 | 0.50 | 4 | 1
C=C1NC(=O)[C@H](C(C)C)NC(=O)[C@H](NC(=O)/C(=C/C)NC(=O)[C@@H](N)[C@@H](C)CC)CSC[C@@H](C(=O)N[C@H]2C(=O)N3CCC[C@H]3C(=O)NCC(=O)N[C@H](C(=O)N[C@H](C(=O)N[C@@H]3CSC[C@@H]4NC(=O)CNC(=O)[C@@H](CSC[C@@H]5NC(=O)[C@H](Cc6c[nH]cn6)NC(=O)[C@@H](CSC[C@@H](C(=O)NCCCCCCCCCCCC)NC5=O)NC4=O)NC(=O)CNC(=O)CNC(=O)CNC(=O)[C@H](CCC(=O)NCCCCCCCCCCCC)NC3=O)[C@@H](C)O)CS[C@H]2C)NC(=O)[C@H](Cc2c[nH]c3ccccc23)NC1=O [Compound 8] | 2 | 2 | 0.25 | 2 | 1 | 1 | 1 | 1 | 1 | 1 | 2

From patent publication US20120053115A1, “Lantibiotic Carboxyamide Derivatives With Enhanced Antibacterial Activity” (Sentinella Pharmaceuticals, Inc., priority 2008, published 2012)
